Reference: the NIST ThermoML archive (doi:10.1016/j.tca.2017.10.004)
Numbers after ± are expanded uncertainties.

Test: excess molar enthalpy (molar enthalpy of mixing); xn = mol fraction of the nth substance listed
Settings: 100 kPa, Liquid, Calvet calorimetry

## [Li] [lithium] + [Zn]
1006 K, x2 = 0.0993
  excess molar enthalpy: -0.526 ± 0.287 kcal/mol

## [Zn] [zinc] + [Ga]
813 K, x1 = 0.9
  excess molar enthalpy: 0.191 ± 0.143 kcal/mol
1017 K, x1 = 0.0996
  excess molar enthalpy: 0.12 ± 0.0478 kcal/mol
1018 K, x1 = 0.5
  excess molar enthalpy: 0.382 ± 0.0956 kcal/mol
